Data on eleven substances can be found in patent US20060286047A1, “Methods for determining the sequence of a peptide motif having affinity for a substrate” (priority 2005, published 2006).

The nature of experiment [1]: ELISA assay of peptide motif binding to bleached hair. More on the design: species or system human; Binding Activity % Relative to Control: concentration or dose not given beside the values. The conditions noted are these: for Binding Activity % Relative to Control: bleached human hair, biotinylated peptide, streptavidin-HRP/TMB, A450, relative to positive control SEQ ID NO:124; for binding activity to hair compared to the positive control peptide (in words): bleached hair ELISA, summary of Table 7. Here is the method:
The hair samples used were 6-inch (15.2 cm) medium brown human hairs obtained from International Hair Importers and Products (Bellerose, N.Y.). The hairs were placed in 90% isopropanol for 30 min at room temperature and then washed 5 times for 10 min each with deionized water. The hairs were air-dried overnight at room temperature. To prepare the bleached hair samples, the air-dried medium brown human hairs were placed in 6% H2O2, which was adjusted to pH 10.2 with ammonium hydroxide, for 10 min at room temperature and then washed 5 times for 10 min each with deionized water. The hairs were air-dried overnight at room temperature.
Ten hair-binding peptide motifs from Table 6 were selected for testing of their hair-binding activity. The ten peptides were synthesized by SynPep (Dublin, Calif.). […] The control peptide had the sequence TPPELLHGDPRS, given as SEQ ID NO:124. The peptides were biotinylated by adding a biotinylated lysine residue at the C-terminus of the amino acid binding sequences for detection purposes and an amidated cysteine was added to the C-terminus of the sequence.
Bleached hair samples were prepared and placed into wells of a custom 24-well biopanning apparatus, as described in Example 1. The hair was blocked with blocking buffer (SuperBlock™ from Pierce Biotechnology, Inc., Rockford, Ill.) at room temperature for 1 h, followed by six washes with TBST-0.5%, 2 min each, at room temperature. Various concentrations of biotinylated, binding peptide were added to each well, incubated for 15 min at 37° C., and washed six times with TBST-0.5%, 2 min each, at room temperature. Then, streptavidin-horseradish peroxidase (HRP) conjugate (Pierce Biotechnology, Inc.) was added to each well (1.0 μg per well), and incubated for 1 h at room temperature. After the incubation, the conjugate solution was removed and the wells were washed six times with TBST-0.5%, 2 min each, at room temperature. TMB substrate (200 μL) (Pierce Biotechnology, Inc.) was added to each well and the color was allowed to develop for between 5 to 30 min, typically for 10 min, at room temperature. Then, stop solution (200 μL of 2 M H2SO4) was added to each well and the solutions were transferred to a 96-well plate and the A450 was measured using a microplate spectrophotometer (Molecular Devices, Sunnyvale, Calif.). The resulting absorbance values, were used to calculate the binding activity of each hair-binding peptide motif relative to the positive control sequence.
Background: In an ELISA, binding on a coated surface is turned into a signal by an enzyme label.

The conditions of experiment [2]: control peptide as identified by Huang et al.; cited from earlier work.

Consider “90 (PLSTY; Hair-binding peptide motif) [compound 90]”, for which, in experiment [1], the “Binding Activity % Relative to Control” value is listed as 53.0%.
As for “92 (TLGQA; Hair-binding peptide motif) [compound 92]”, the “Binding Activity % Relative to Control” value in experiment [1] is listed as 86.6%.
Regarding “95 (YSPIK; Hair-binding peptide motif) [compound 95]”, in experiment [1], the “binding activity to hair compared to the positive control peptide (in words)” value is recorded as “low binding activity” and the “Binding Activity % Relative to Control” value is on record as 1.9%.
As to “97 (FPPVP; Hair-binding peptide motif) [compound 97]”, the “Binding Activity % Relative to Control” value in experiment [1] is listed as 81.5%.
For “98 (RPPLD; Hair-binding peptide motif) [compound 98]”, in experiment [1], the “binding activity to hair compared to the positive control peptide (in words)” value is recorded as “comparable to or greater than that of the positive control peptide” and the “Binding Activity % Relative to Control” value is 90.3%.
Turning to “99 (QPLSV; Hair-binding peptide motif) [compound 99]”, the “Binding Activity % Relative to Control” value in experiment [1] worked out at 84.6%.
For the substance “119 (SNTTPSPSP; Hair-binding peptide motif) [compound 119]”, in experiment [1], the “binding activity to hair compared to the positive control peptide (in words)” value was “comparable to or greater than that of the positive control peptide” and the “Binding Activity % Relative to Control” value is 94.5%.
As for “120 (THPLSNTT; Hair-binding peptide motif) [compound 120]”, the “Binding Activity % Relative to Control” value in experiment [1] amounted to 88.3%.
As for “121 (SPIKRPPLS; Hair-binding peptide motif) [compound 121]”, in experiment [1], the “binding activity to hair compared to the positive control peptide (in words)” value is “low binding activity” and the “Binding Activity % Relative to Control” value came out at 4.4%.
“123 (RLLRLLRLLRLL; Hair-binding peptide motif) [compound 123]”: in experiment [1], the “binding activity to hair compared to the positive control peptide (in words)” value is listed as “comparable to or greater than that of the positive control peptide” and the “Binding Activity % Relative to Control” value is 127.1%.
Consider “124 (TPPELLHGDPRS; Control hair-binding peptide) [compound 124]”, for which the “Binding Activity % Relative to Control” value in experiment [1] came to 100.0%. In experiment [2], the “affinity for hair (in words)” value is given as “high affinity for hair”.
